These results are taken from PubChem BioAssay AID624404 (Broad Institute, 2012).

Records with an inconclusive call do not appear. Calls of active or inactive are those of the source.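 How the source made its calls: active means luciferase signal rise whose fitted curve crosses a set activity limit at or below the top valid tested dose; inconclusive means flat fit with 30 to 70% rise, or poor fit; inactive means signal falling, flat within 30%, or crossing above top dose.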 A value given as a limit tells only on which side of the number the result lay.

The test system of the experiment is D54 LucT luciferase reporter counterscreen, luminescence, 24 h. Description: reporter signal increase, D54 LucT cells – cell-based, luminescence, cherry pick, counter-screen for N-linked glycosylation inhibitor project, dose response (AID 624404).
In the case of `COc1ccc(CCn2c(O)c(C=NCc3ccc4c(c3)OCO4)c(=O)[nH]c2=O)cc1OC`, the AC35 is 678 nM.

With `NC(=O)CC(NC(=O)c1ccc(Br)cc1)c1ccc(N2CCCCCC2)c([N+](=O)[O-])c1` (centres undefined), the AC35 is 1090 nM.

Consider `CCOc1ccc2[nH]c3c(N4CCc5ccccc5C4)ncnc3c2c1`, for which the AC35 is 4260 nM.

For `CN1C(=O)CSc2ccc(NC(=O)Nc3ccccn3)cc21`, the AC35 was 828 nM.

Take `N#Cc1c(N)n(CCc2ccc(F)cc2)c2nc3ccccc3nc12`: the AC35 was 1880 nM.

As for `Cn1c(=O)n(C)c2cc(S(=O)(=O)N3CCCc4ccccc43)ccc21`, the AC35 is 10200 nM.

For the compound `CC12CC[C@H]3[C@@H](CCC4(O)C[C@H](O)CCC34/C=N/NC(=O)c3ccccc3O)C1(O)CCC2C1=CC(=O)OC1` (some centres undefined), the AC35 is 6220 nM.

`COc1ccc(CC(=O)NCc2ccc(-n3cccc3)cc2)cc1OC`: the AC35 is 1610 nM.

For `COc1ccc(CNC(=O)c2cccc3c(-c4cccnc4)coc23)cc1OC`, the AC35 is 2600 nM.

As to `CCOC(=O)Nc1nc2ccc(Cn3cccc3)cc2[nH]1`, the AC35 was 115 nM.

In the case of `O=C(NCCN1C(=O)S/C(=C\c2ccccc2Cl)C1=O)C1=COCCO1`, the AC35 was 4980 nM.

For `NNC(=O)c1ccc2nc(-c3ccc(Br)cc3)cn2c1`, the AC35 was 780 nM.

With `CC(=O)Nc1ccc(-c2ccnc3c2CC(C(=O)NCc2cccc(Cl)c2)O3)cc1` (centres undefined), the AC35 is 57.6 nM.

Regarding `COc1ccc(Cl)cc1NC(=O)Nc1ccc(C(=O)N2CCCC2)cc1`, the AC35 was 2950 nM.

As for `Cn1c(-c2ccccc2)c(/C=N/NC(=O)c2cccnc2)c2ccccc21`, the AC35 is 171 nM.

As for `Cc1nn(-c2ccccc2)c(Cl)c1/C=N/Nc1nc2ccccc2[nH]1`, the AC35 is 23.5 nM.

For `O=C(Nc1cccc(-c2cn3ccccc3n2)c1)c1cccc(Cl)c1`, the AC35 is 2150 nM.

Regarding `Cc1ccc(C)n1-c1ccc(C(=O)/C=C/N(C)C)cc1`, the AC35 was 1050 nM.

For the compound `Oc1[nH]c(N=C2N=c3ccccc3=N2)c2ccccc12`, the AC35 is 17.2 nM.

As to `CCc1ccc(C2c3[nH]c4ccccc4c3CCN2C(=O)c2ccc(=O)n(C)n2)cc1` (centres undefined), the AC35 was 1240 nM.

Regarding `O=C(Nc1cccc(NC(=O)c2cccs2)c1)c1ccc([N+](=O)[O-])o1`, the AC35 is 1050 nM.

`CCNC(=O)COc1ccc(/C=C2\COc3ccccc3C2=O)cc1OC`: the AC35 is 4800 nM.

As for `COc1cc(-c2nccc3cc4c(cc23)OCO4)cc(OC)c1OC`, the AC35 is 61.7 nM.

With `Cc1ccc2c(c1)[C@H]1[C@H](CO2)[C@H](c2ccccc2)[C@]2(C)C(=O)Nc3ccc(Br)cc3C(=O)N12`, the AC35 was 1760 nM.

As to `Cn1c(=O)cc(OCCCC(=O)Nc2ccc3c(c2)OCCO3)c2ccccc21`, the AC35 is 353 nM.

For the compound `COc1cccc(C(N)c2nc(-c3csc4ccccc34)cs2)c1` (centres undefined), the AC35 was 4880 nM.

As to `CC(C)Sc1ccccc1C(=O)Nc1ccc2c(c1)n(C)c(=O)n2C`, the AC35 was 1820 nM.

Take `CC(=O)NC(c1cccc(F)c1)c1nc(-c2ccccc2C)cs1` (centres undefined): the AC35 was 263 nM.

For `Cc1ccc(-c2cc(C(=O)N3CC(C)OC(C)C3)c3ccccc3n2)o1` (centres undefined), the AC35 is 2910 nM.

As for `CCCCNC(=O)c1cc(-c2ccc(F)cc2)on1`, the AC35 is 806 nM.

Take `Cc1cccc2c(C(=O)N3CCN(c4ccccc4)CC3)cc(-c3ccncc3)nc12`: the AC35 was 126 nM.

As to `CCN(CC)c1ccc(/C=N\NC(=O)c2cccc3cc[nH]c23)cc1`, the AC35 was 1940 nM.

As for `COc1ccc(C(=O)N/N=C/C23CC[C@@H](O)CC2(O)CC[C@@H]2[C@@H]3CCC3(C)C(C4=CC(=O)OC4)CCC23O)cc1` (some centres undefined), the AC35 was 388 nM.

Regarding `COc1cc(Nc2c3ccccc3nc3ccccc23)cc(OC)c1OC`, the AC35 is 4160 nM.

Take `Cc1ccc2c(c1)NC(=O)[C@@]1(C)[C@@H](c3ccccc3)[C@H]3COc4ccccc4[C@@H]3N1C2=O`: the AC35 was 371 nM.

On to `Cc1cccc(N2CCN(C(=O)c3cc(S(=O)(=O)N4CCCC4)cn3C)CC2)c1C`, for which the AC35 was 33.3 nM.

Take `COc1cccc(C2=NOC(C(=O)NCc3ccc(F)cc3)C2)c1` (centres undefined): the AC35 was 4170 nM.

`CN(C)CCNc1cccc2sc3ccc(O)cc3c(=O)c12`: the AC35 is 1980 nM.

Turning to `COc1cc(NC(=O)c2ccc(-c3c(C)noc3C)c3ccoc23)cc(OC)c1OC`, the AC35 was 58.2 nM.

Consider `CCOC(=O)n1c(=O)n(Cc2ccc(OC)cc2)c2ccccc21`, for which the AC35 is > 19500 nM (inactive).

As for `O=C(Nc1ccc(S(=O)(=O)N2CCOCC2)cc1)c1cc(-c2cc(Cl)ccc2O)n[nH]1`, the AC35 is 1370 nM.

As to `CCN(CC)c1ccc(C(=O)n2cnc3ccccc32)cc1`, the AC35 was 662 nM.

As for `CC(=O)Nc1sc(C)c(C)c1C(=O)OCC(=O)Nc1ccccc1`, the AC35 is 1920 nM.

For `c1ccc(-c2cc(-c3nnc4n3N=C(c3ccc5ccccc5c3)CS4)[nH]n2)cc1`, the AC35 is 205 nM.

For `COC(=O)c1c(NC(=O)CN2C(=O)NC3(CCC(C)CC3)C2=O)sc2c1CCC2` (centres undefined), the AC35 was 592 nM.

For `COc1ccc2c(c1)OC[C@H]1[C@H]2N2C(=O)c3ccc(C)cc3NC(=O)[C@@]2(C)[C@H]1c1ccccc1`, the AC35 was 658 nM.

In the case of `COc1ccccc1NS(=O)(=O)c1ccc(-c2cc(C)no2)s1`, the AC35 is 18300 nM.

`COc1cc(C(=O)NC2CCN(C)CC2)ccc1Nc1ncc2c(n1)N(C1CCCCC1)CCC(=O)N2C`: the AC35 was 30.5 nM.

For `Cc1cc2cc(CNC(=O)Cc3cccs3)ccc2n1C`, the AC35 is 13600 nM.

With `N#Cc1c(NC(=O)/C=C/c2ccco2)sc2c1CCCC2`, the AC35 was 115 nM.

Regarding `Cc1ccc(Nc2nc(N)nc(CN3CCN(Cc4ccccc4)CC3)n2)cc1Cl`, the AC35 was 107 nM.

For `C[C@H](CO)N1C[C@H](C)[C@@H](CN(C)S(=O)(=O)c2ccccc2)Oc2c(NC(=O)Cc3ccccc3)cccc2C1=O`, the AC35 is 2240 nM.

Regarding `CCOC(=O)c1sc(Nc2nc(C)cc(C)n2)nc1C`, the AC35 was 1070 nM.

In the case of `COc1ccc(CCCC(=O)NCc2ccccc2)cc1C`, the AC35 was 2780 nM.

Take `Cn1c(SCC(=O)c2ccccc2)ncc(C(=O)Nc2ccccc2)c1=O`: the AC35 was 382 nM.

Consider `COc1cccc(N2CCN(C(=O)c3ccc(CS(=O)c4ccc(Cl)cc4)o3)CC2)c1` (centres undefined), for which the AC35 is 773 nM.

With `CCOC(=O)N1CCN(C(=O)c2cc(-c3ccncc3)nc3ccccc23)CC1`, the AC35 is 5630 nM.

Take `Cc1cccc(CCNC(=O)CCCOc2cc(=O)n(C)c3ccccc23)c1`: the AC35 was 321 nM.

For the compound `COc1ccccc1N1CC(O)=C(c2nc3ccccc3c(=O)[nH]2)C1=N`, the AC35 is 5720 nM.

With `O=C(Nc1c(Cl)ccc2nsnc12)c1ccc([N+](=O)[O-])o1`, the AC35 is 778 nM.

For `CCNc1oc(/C=C/c2ccc(OCC)cc2)nc1C#N`, the AC35 was 940 nM.

As for `O=C1Cc2c(-c3ccccc3)cc(-c3cccc(Cl)c3)nc2-c2ccccc2N1`, the AC35 was 5370 nM.

Take `O=C(/C=C/Sc1ccccc1)c1ccc(Cl)cc1`: the AC35 was 370 nM.

With `COc1ccc(C(=O)/C=C/c2ccc(-c3ccccc3)cc2)cc1CSCC(=O)O`, the AC35 is 875 nM.

On to `COc1ccccc1-c1csc(C(NC(C)=O)c2ccccc2)n1` (centres undefined), for which the AC35 is 643 nM.

Consider `Cc1ccc(C=Nc2ccccc2C(N)=O)cc1`, for which the AC35 is 2750 nM.

On to `O=C(C=Cc1ccccc1F)c1ccccc1`, for which the AC35 is 199 nM.

For the compound `O=C(N/N=C\c1cn(-c2ccccc2)nc1-c1ccccc1)c1ccc(Br)o1`, the AC35 is 957 nM.

Consider `Cc1cccc([C@@H]2[C@@H]3C(=O)N(Cc4ccccc4)C(=O)[C@@H]3[C@]3(Cc4ccccc4)C(=O)N(c4cccc(F)c4)C(=O)N23)c1`, for which the AC35 is 4360 nM.

Take `COc1ccc(Nc2nc(-c3sc(C)nc3C)cs2)c(OC)c1`: the AC35 was 75 nM.

For the compound `C[C@@H](NC(=O)c1ncn2c1c(=O)[nH]c1ccc(Br)cc12)c1ccccc1`, the AC35 is 210 nM.

Take `CC1(C(=O)NCc2ccccc2)Cc2c(-c3cccc(C(N)=O)c3)ccnc2O1` (centres undefined): the AC35 is 651 nM.

Regarding `COc1ccc(CNC(=O)c2cccc3c(-c4cccc(C(N)=O)c4)coc23)cc1OC`, the AC35 was 408 nM.

In the case of `Cc1ccc(C)n1-c1cccc(NC(=O)c2ccccc2)c1`, the AC35 is 7120 nM.

As for `Cc1ccc(C(=O)N/C(=C\c2ccco2)C(=O)NCCc2c[nH]c3ccccc23)cc1`, the AC35 is 1740 nM.

On to `COc1cc2c(cc1OC)C(c1ccccc1)N(C(=O)c1ccccc1)CC2` (centres undefined), for which the AC35 was 321 nM.

As to `CC(C)Oc1ccc(C(=O)Nc2ccc3c(c2)n(C)c(=O)n3C)cc1`, the AC35 is 5520 nM.

On to `NNC(=O)c1ccc(OCC2CC(c3ccc(Cl)cc3)=NO2)cc1` (centres undefined), for which the AC35 is 157 nM.

Turning to `CC(C)/C=C1\CC/C(=C\c2cccnc2)C1=O`, the AC35 is 9160 nM.

For the compound `COc1cccc(CNC(=O)COC(=O)c2ccc(-c3ccc(O)cc3)cc2)c1`, the AC35 was 3650 nM.

Turning to `COC(=O)c1ccc(C)c(NC(=O)CN(c2cc(OC)ccc2OC)S(C)(=O)=O)c1`, the AC35 is 226 nM.

`COc1cc(NC(=O)CN2c3cccc4cccc(c34)S2(=O)=O)cc(OC)c1OC`: the AC35 was 7530 nM.

For `COc1ccc(S(=O)(=O)NCc2ccccn2)cc1NC(=O)c1ccccc1`, the AC35 is 834 nM.

Regarding `COCCNC(=O)c1cc(-c2cccs2)on1`, the AC35 was 1020 nM.

Consider `COc1ccc2c(c1)C(=O)N1[C@H]3c4cc(OC)ccc4OC[C@@H]3[C@H](c3ccccc3)[C@]1(C)C(=O)N2`, for which the AC35 was 99.7 nM.

For `CCOC(=O)c1c(NC(C)=O)sc2c(OCCN(CC)CC)c(Br)ccc12`, the AC35 is 7.67 nM.

`Cc1ccc(N2CCN(C3=NC(=O)/C(=C\c4cn[nH]c4-c4ccccc4)S3)CC2)cc1`: the AC35 was 793 nM.

For the compound `O=C1NC[C@H](Cc2ccccc2)N(C[C@H]2CCCN2C[C@H](Cc2ccccc2)N2C[C@H](Cc3ccc(O)cc3)N(CCc3ccccc3)C(=O)C2=O)C1=O`, the AC35 was 3770 nM.

As to `Clc1ccc(CSc2cnnc3ccccc23)cc1Cl`, the AC35 is 2090 nM.

Regarding `O=C(NCCc1ccccc1)C1c2ccccc2C(=O)N1Cc1cccs1` (centres undefined), the AC35 was 1400 nM.

As for `COc1ccc(-c2cc3ccccc3oc2=O)cc1NC(=O)c1ccc([N+](=O)[O-])o1`, the AC35 is 837 nM.

For `Cc1ccc2c(c1)C(=O)N1[C@H]3c4cc(Br)ccc4OC[C@@H]3[C@H](c3ccccc3)[C@]1(C)C(=O)N2`, the AC35 was 241 nM.

For `Cc1noc(C)c1-c1ccc(C(=O)NCc2cccnc2)c2occc12`, the AC35 was 297 nM.

`C=CCOc1ccc(C(=O)Nc2ccccc2C(=O)NCc2cccnc2)cc1`: the AC35 is 109 nM.
